Assay results taken from patent US4160839A, “Carbamyltriazole insecticides” (priority 1976, dated 1979).

How the values were obtained:
[1] = test system: southern armyworm (SA) larvae; assay: Spray test, southern armyworm (SA) larvae on bean leaves; assay type: in vivo; settings: approx. 48 h after spraying
Method: (§1) Three 5 oz paper cups containing Henderson dwarf lima bean plants and one 5 oz paper cup containing Orange Gem nasturtiums, all growing in vermiculite, are placed on a turntable and sprayed to thorough wetness with 25 ml of a solution of the candidate chemical at the appropriate concentration. Nasturtiums were already infested with 50-100 bean aphids (BA). A bean plant in one paper cup was already infested with 50-100 two-spotted mites (TSM). Leaves from the two remaining bean plants are removed following spraying and placed in disposable petri dishes with 5 southern armyworm (SA) larvae in one petri dish, and 5 Mexican bean beetle (MBB) larvae in the other petri dish. The rating is done approximately 48 hours after spraying as follows:
(§2) So as to obtain more meaningful results, all tests are performed at the same time of day, whenever possible, usually in the forenoon. Temperature,illumination and humidity are the same in all tests. Atmospheric pressure is not controlled.
(§3) Results obtained with the novel insecticides of this invention at various concentrations of active chemical are tabulated below. The ratings given are for averages of three or more replicates. The oral lethal dose for 50 percent kill of laboratory rats is also recorded in the table. In conducting the toxicity tests on rats, 0.01 g of active chemical per ml in corn oil is employed as an additive to the diet of the animals.

two-spotted mites (TSM) = assay: Spray test, two-spotted mites (TSM) on bean plants; assay type: in vivo; settings: approx. 48 h after spraying
Method: as §1, §2, §3

[2] = test system: Southern Corn Rootworm (SCR); assay: Southern Corn Rootworm (SCR) soil treatment test, root feeding damage on corn; assay type: in vivo; design: scale not given here; settings: nine days after treatment
Method: Three 5 oz paper cups planted each with one kernel of DeKalb XL-361 corn are treated two days after planting with 10 ml of a 125 ppm solution of the candidate compound. Compounds with high efficacy are treated at lower concentrations. The experiment is a 4×5 factorial in a randomized complete block design with three replications. The tests are evaluated nine days after treatment. The roots are inspected under a dissecting microscope and rated as follows:
as §2, §3

bean aphids (BA) = assay: Spray test, bean aphids (BA) on nasturtiums; assay type: in vivo; settings: approx. 48 h after spraying
Method: as §1, §2, §3

[3] = Oral toxicity test on laboratory rats; settings: rat, in vivo, in corn oil as additive to the diet, read-out: LD50 (oral lethal dose for 50 percent kill of laboratory rats)
Method: as §3

[4] = test system: Mexican bean beetle (MBB) larvae; assay: Spray test, Mexican bean beetle (MBB) larvae on bean leaves; assay type: in vivo; settings: approx. 48 h after spraying
Method: as §1, §2, §3

| Structure (SMILES) | SA rating (larvae dead) ([1]; 15 ppm) | SA rating (larvae dead) ([1]; 31 ppm) | SA rating (larvae dead) ([1]; 62 ppm) | SA rating (larvae dead) ([1]; 125 ppm) | SA rating (larvae dead) ([1]; 250 ppm) | SA rating (larvae dead) ([1]; 500 ppm) | TSM rating (dead adults) (two-spotted mites (TSM); 500 ppm) | BA rating (dead) (bean aphids (BA); 4 ppm) | BA rating (dead) (bean aphids (BA); 8 ppm) | BA rating (dead) (bean aphids (BA); 15 ppm) | BA rating (dead) (bean aphids (BA); 31 ppm) | BA rating (dead) (bean aphids (BA); 62 ppm) | BA rating (dead) (bean aphids (BA); 125 ppm) | BA rating (dead) (bean aphids (BA); 250 ppm) | BA rating (dead) (bean aphids (BA); 500 ppm) | MBB rating (larvae dead) ([4]; 15 ppm) | MBB rating (larvae dead) ([4]; 31 ppm) | MBB rating (larvae dead) ([4]; 62 ppm) | MBB rating (larvae dead) ([4]; 125 ppm) | MBB rating (larvae dead) ([4]; 500 ppm) | other results |
| --- | --- | --- | --- | --- | --- | --- | --- | --- | --- | --- | --- | --- | --- | --- | --- | --- | --- | --- | --- | --- | --- |
| C#CCSc1nc(C2CC2)nn1C(=O)N(C)C [R=2-propynyl (propargyl), R'=cyclopropyl] | 0 (no larvae dead) | 0 (no larvae dead) | 0 (no larvae dead) | 2 (26-50% larvae dead) | 4 (76-99% larvae dead) | 5 (100% larvae dead) | 5 (100% dead adults) | 3 (51-75% dead) | 5 (100% dead) | 5 (100% dead) | 5 (100% dead) | 5 (100% dead) | 5 (100% dead) | 5 (100% dead) | 5 (100% dead) | 1 (1 -25% larvae dead) | 1 (1 -25% larvae dead) | 3 (51-75% larvae dead) | 5 (100% larvae dead) | 5 (100% larvae dead) | TSM rating (dead adults) (two-spotted mites (TSM); 15 ppm): 0 (no dead adults); TSM rating (dead adults) (two-spotted mites (TSM); 31 ppm): 0 (no dead adults); TSM rating (dead adults) (two-spotted mites (TSM); 62 ppm): 2 (26-50% dead adults); TSM rating (dead adults) (two-spotted mites (TSM); 125 ppm): 4 (76-99% dead adults); TSM rating (dead adults) (two-spotted mites (TSM); 250 ppm): 4 (76-99% dead adults); SCR Rating (root feeding damage) ([2]; 25 ppm): 1.3; SCR Rating (root feeding damage) ([2]; 50 ppm): 4.3; SCR Rating (root feeding damage) ([2]; 100 ppm): 4.3; BA rating (dead) (bean aphids (BA); 2 ppm): 1 (1-25% dead); LD50 [3]: 10 mg/kg; MBB rating (larvae dead) ([4]; 250 ppm): 5 (100% larvae dead) |
| C=CCSc1nc(C(C)C)nn1C(=O)N(C)C [R=2-propenyl (allyl), R'=isopropyl] | 0 (no larvae dead) | 0 (no larvae dead) | 0 (no larvae dead) | 0 (no larvae dead) | 0 (no larvae dead) | 5 (100% larvae dead) | 0 (no dead adults) | 2 (26-50% dead) | 4 (76-99% dead) | 5 (100% dead) | 5 (100% dead) | 5 (100% dead) | 5 (100% dead) | 5 (100% dead) | 5 (100% dead) | 0 (no larvae dead) | 0 (no larvae dead) | 2 (26-50% larvae dead) | 5 (100% larvae dead) | 5 (100% larvae dead) | SCR Rating (root feeding damage) ([2]; 3 ppm): 3.5; BA rating (dead) (bean aphids (BA); 2 ppm): 0 (none dead); LD50 [3]: 10 to 50 mg/kg; MBB rating (larvae dead) ([4]; 250 ppm): 5 (100% larvae dead) |
| C=CC(C)Sc1nc(C(C)(C)C)nn1C(=O)N(C)C (stereo not drawn) [R=1-methylallyl, R'=tert.butyl] | 0 (no larvae dead) | 0 (no larvae dead) | 0 (no larvae dead) | 0 (no larvae dead) | 0 (no larvae dead) | 4 (76-99% larvae dead) | 0 (no dead adults) |  |  | 5 (100% dead) | 5 (100% dead) | 5 (100% dead) | 5 (100% dead) | 5 (100% dead) | 5 (100% dead) | 0 (no larvae dead) | 0 (no larvae dead) | 0 (no larvae dead) | 1 (1 -25% larvae dead) | 5 (100% larvae dead) | MBB rating (larvae dead) ([4]; 250 ppm): 1 (1 -25% larvae dead) |
| C=C(Br)CSc1nc(C(C)(C)C)nn1C(=O)N(C)C |  |  |  |  |  | 0 (no larvae dead) | 4 (76-99% dead adults) | 4 (76-99% dead) | 4 (76-99% dead) | 5 (100% dead) | 5 (100% dead) | 5 (100% dead) | 5 (100% dead) | 5 (100% dead) | 5 (100% dead) |  |  |  |  | 2 (26-50% larvae dead) | TSM rating (dead adults) (two-spotted mites (TSM); 15 ppm): 0 (no dead adults); TSM rating (dead adults) (two-spotted mites (TSM); 31 ppm): 0 (no dead adults); TSM rating (dead adults) (two-spotted mites (TSM); 62 ppm): 0 (no dead adults); TSM rating (dead adults) (two-spotted mites (TSM); 125 ppm): 0 (no dead adults); TSM rating (dead adults) (two-spotted mites (TSM); 250 ppm): 0 (no dead adults) |
